Experimental data reported in patent publication US20190365666A1, “METHODS FOR PREVENTION AND TREATMENT OF CARDIOMETABOLIC SYNDROME AND COMPOSITIONS USED THEREIN” (OmniActive Health Technologies Limited, priority 2015, published 2019).

How the values were obtained:
[1] = Body weight, feed intake, visceral fat and liver weight in control and high fat diet rats; format: in vivo, Sprague Dawley rats; conditions: 2.5 mg/kg daily, 12 weeks
Method: (§1) Male Sprague Dawley rats (7 rats/group, age: 8 week, weight: 180±20 g) were housed in a controlled environment with a 12:12-h light-dark cycle at 22° C. and provided with rat chow and water ad libitum. All experiments were conducted under the National Institutes of Health's Guidelines for the Care and Use of Laboratory Animals and approved by the Ethics Committee of the Veterinary Control Institute. After acclimation for 2 weeks, the rats were divided into four groups: Rats were randomly divided into the following groups: (1) Control, (2) High Fat Diet (HFD) (42% of calories from fat), (3) control+beta-cryptoxanthin (2.5 mg/kg) 4) HFD (42% of calories from fat)+beta-cryptoxanthin (2.5 mg/kg) was administered daily as supplement for 12 weeks.
The experiment was performed using 28 male Sprague-Dawley rats (8 weeks old, weighing 180±20 g), purchased from the Inonu University Laboratory Animal Research Center (Malatya, Turkey). Rats were housed in cages in a temperature and humidity controlled environment, on a 12-hr light and 12-hr dark cycle, designed for the purpose of the study. The temperature inside the rat cages was 21±2° C., relative humidity was 55±5% and consecutive light-dark cycles lasted 12 hours. The protocol of the study was approved by the Animal Experimentation Ethics Committee of Inonu University (Malatya, Turkey). All procedures involving rats were conducted in strict compliance with relevant laws, the Animal Welfare Act, Public Health Services Policy, and guidelines established by the Institutional Animal Care and Use Committee of the Institute. Prior the starting the experiment, animals were assigned to either a regular diet (control; 12% of calories from fat) or a high-fat diet (HFD, 42% of calories from fat). Control or HFD composed according to the American Institute of Nutrition AIN-93 (Reeves et al., 1993) recommendations of casein (20%), soybean oil (7%), wheat starch (53.2%), sucrose (10%), potato starch (5%), 1-cysteine (0.3%), vitamin mix AIN-93M (1%) and mineral mix AIN-93M (3.5%). The high-fat diets (42% calories from fat) were obtained from the basal AIN-93 diet, by replacement of wheat starch with fat (tallow 15% and soybean oil 10%). For induction of obesity (insulin resistance), the rats were fed with HFD for 12 weeks
(§2) After a one week period of adaptation to laboratory conditions, the animals were randomly divided into four equal groups: 1) Control (n=7): untreated rats were allowed free access to a standard diet; 2) BCX Group, rats were fed a standard diet supplemented with beta-cryptoxanthin (n=7) 2.5 mg/kg; 3) HFD Group (high-fat diet; 42% of calories from fat; n=7): rats were fed a high-fat diet 4) HFD+BCX Group, rats were fed a high-fat diet (42% of calories from fat; n=7) supplemented with beta-cryptoxanthin 2.5 mg/kg. 5% suspension of beta-cryptoxanthin was dissolved in corn oil. At the end of the experiment, all rats were sacrificed by cervical dislocation. Blood samples were taken from rats in the morning upon overnight fasting for biochemical analyses and their visceral fat and liver samples were removed and weighed after sacrificing the animals.

[2] = tested on: VEGF, Nrf-2, NFkB, iNOS, ICAM-1, HO-1 in retina tissue; experiment: Western blot of retina tissue markers in HFD treated rats; format: in vivo, Sprague Dawley rats; conditions: FIG. 8
[3] = tested on: BCO2, TNF-α, PPAR-γ, Nrf-2, NFkB, IRS-1, HO-1 in liver tissue; experiment: Western blot of liver tissue markers in HFD treated rats; format: in vivo, Sprague Dawley rats; conditions: P<0.001
[4] = tested on: BCO2, TNF-α, PPAR-γ, Nrf-2, NFkB, IRS-1, HO-1 in liver tissue; experiment: as above; format: in vivo, Sprague Dawley rats
Method: as §2
For Western blot analyses protein extraction was performed by homogenizing the liver in 1 ml ice-cold hypotonic buffer A, containing 10 mM2-[4-(2-Hydroxyethyl)-1-piperazinyl] ethanesulfonic acid [HEPES] (pH 7.8), 10 mMKCl, 2 mM MgCl2, 1 mM DTT, 0.1 mM EDTA, and 0.1 mM phenylmethylsulfonyl-fluoride (PMSF). The homogenates were added with 80 μl of 10% Nonidet P-40 (NP-40) solution and then centrifuged at 14,000×g for 2 min. The precipitates were washed once with 500 μl of buffer A plus 40 μl of 10% NP-40, centrifuged, re-suspended in 200 μl of buffer C [50 mM HEPES [pH 7.8], 50 mMKCl, 300 mM NaCl, 0.1 mM EDTA, 1 mM dihiothreitol [DTT], 0.1 mM PMSF, 20% glycerol], and recentrifugedat 14,800×g for 5 min. The supernatants were collected for determinations of NF-KB, VEGF, iNOS, ICAM, Nrf2, and HO-1 according to the method described by Sahin et al. [2012]. Equal amounts of protein (50 μg) were electrophoresed and subsequently transferred onto a nitrocellulose membrane (Schleicher and Schuell Inc., Keene, N.H., USA).
Antibodies against NF-κB, TNF-α, Nrf2, HO-1, PPAR-γ, and p-IRS1, (Abcam (Cambridge, UK) were diluted (1:1000) in the same buffer containing 0.05% Tween-20. Protein loading was controlled sing a monoclonal mouse antibody against β-actin (A5316; Sigma). Bands were analyzed densitometrically using an image analysis system (Image J; National Institute of Health, Bethesda, USA). (FIG. 12)

[5] = Oxidative stress markers and antioxidant status (TBARS/MDA, TAC, SOD, CAT, GSHPx) in serum, retina and liver of control and HFD rats; format: in vivo, Sprague Dawley rats; conditions: 2.5 mg/kg daily, 12 weeks
Method: as §1, §2
The total antioxidant capacity (TAC) was measured using an antioxidant assay kit (Sigma, St Louis, Mo., USA). Trolox was used as an antioxidant standard to calculate Trolox equivalent antioxidant capacity; absorbance readings were taken at 520 nm. Lipid peroxidation was measured in terms of MDA formation, which is the major product of membrane lipid peroxidation done by a previously described method (Karatepe, 2004) with slight modification.
The liver MDA content was measured by high performance liquid chromatography (HPLC, Shimadzu, Tokyo, Japan) using a Shimadzu UV-vis SPD-10 AVP detector and a CTO-10 AS VP column in a mobile phase consisting of 30 mM KH2PO4 and methanol (82.5+17.5, v/v; pH 3.6) at a flow rate of 1.2 ml/min. Column effluents were monitored at 250 nm and the volume was 20 μl. The liver homogenate (10%, w/v) was prepared in 10 mM phosphate buffer (pH 7.4), centrifuged at 13,000×g for 10 min at 4° C., and the supernatant was collected and stored at −80° C. for MDA analysis (Karatepe, 2004). Activities of superoxide dismutase (SOD), catalase (CAT) and glutathione peroxidase (GPx) of homogenized liver were measured using a commercial kit (Cayman Chemical, Ann Arbor, Mich., USA) according to the manufacturer's instructions.

[6] = tested on: differentiated 3T3-L1 cells; experiment: Real time PCR gene expression (nutrigenomics) study in differentiated 3T3-L1 adipocytes; format: cell-based, murine; conditions: 12.5 ug/mL, versus DMSO
Method: 3T3L1 murine adipocytes model system was used to understand basic cellular mechanisms associated with diabetes, obesity and related disorders. Nutrigenomics study was carried out to evaluate effect of beta-cryptoxanthin on adipocyte cells, particularly differentiated 3T3-L1 cells, the study was based on real-time polymerase chain reaction (Real time PCR) with dose 12.5 ug/mL. The effect of beta-cryptoxanthin on Adipocyte differentiation and its activity for bio markers PPARG, SCD-1, acetyl Coa carboxylase (ACC), SREBP-1, C/EBPα and FAS were evaluated.
See FIG. 4, where each set of bar graphs for tests with BCX and without BCX (DMSO) correspond from the leftside bar respectively with the heading legend of the factors tested (i.e. for the bar results of BCX, 0.9 for ACC alpha, 0.39 for C/EPB alpha, 0.33 for FAS, 0.7 for PPAR gamma, and 0.38 for SCD-1).

[7] = Serum glucose, insulin, leptin, adiponectin and lipid profile in control and HFD rats; format: in vivo, Sprague Dawley rats; conditions: 2.5 mg/kg daily, 12 weeks
Method: as §1, §2
Blood was collected by cardiac puncture using an anticoagulant-free vacutainer tube, later centrifuged at 3,000×g for 10 min to obtain serum and kept frozen at −80° C. until it was assayed for biochemical parameters and malondialdehyde (MDA). Serum biochemical parameters were estimated using an automatic analyzer (Samsung LABGEO PT10, Samsung Electronics Co, Suwon, Korea). Repeatability and device/method precision of LABGEO^PT10 was established according to the IVR-PT06 guideline. Serum insulin, leptin and adiponectin levels were measured with the Rat Insulin Kit (Linco Research Inc, St. Charles, Mo., USA) by ELISA (Elx-800; Bio-Tek Instruments Inc, Vermont, USA).

[8] = HFD rats, listed as BC, 2.5 mg/kg
[9] = HFD rats, listed as Beta-cryptoxanthin, 2.5 mg/kg
[10] = HFD rats, Western blot, P<0.001

SMILES: CC1=C(/C=C/C(C)=C/C=C/C(C)=C/C=C/C=C(C)/C=C/C=C(C)/C=C/C2=C(C)C[C@@H](O)CC2(C)C)C(C)(C)CCC1 [BCX, beta-cryptoxanthin]
- Feed intake ([1]; HFD rats): 16.87 g/day
- Final BW ([1]; HFD rats, 2.5 mg/kg): decrease
- Liver (weight) ([1]; HFD rats, 2.5 mg/kg): decreased
- Visceral fat ([1]; HFD rats, 2.5 mg/kg): decreased
- Final BW [1, 8]: 325.43 g
- Liver (weight) [1, 8]: 18.46 g
- Visceral fat [1, 8]: 14.93 g
- Final BW [1, 9]: significantly reduced
- Visceral fat [1, 9]: a tendency towards a decrease
- Feed intake ([1]; normal diet rats): 23.88 g/day
- Final BW ([1]; normal diet rats): 290.29 g
- Liver (weight) ([1]; normal diet rats): 12.74 g
- Visceral fat ([1]; normal diet rats): 7.75 g
- iNOS in retina tissue (effect in words) [2]: decreased
- enhancement of liver PPAR-α level [3]: 3.53 fold
- BCO2 expression in liver tissue (effect in words) ([4]; FIG. 13): upregulate
- Nrf2 expression in liver tissue (effect in words) ([4]; HFD rats, FIG. 16): decrease
- NFkB in liver tissue (effect in words) ([4]; HFD rats, FIG. 17): decreased
- HO-1 in liver tissue (effect in words) ([4]; HFD rats, FIG. 18): decreased
- IRS-1 in liver (effect in words) ([4]; HFD rats, FIG. 19): increased
- enhancement of liver HO-1 level [4, 10]: 1.41 fold
- enhancement of liver p-IRS1 level [4, 10]: 1.33 fold
- inhibition of liver NFkB expression [4, 10]: 22%
- inhibition of liver TNF-α expression [4, 10]: 14%
- PPAR gamma in liver tissue (effect in words) ([4]; HFD treated rats, FIG. 15): activated
- Liver CAT ([5]; HFD rats, 2.5 mg/kg): increased
- Liver SOD ([5]; HFD rats, 2.5 mg/kg): increased
- Liver TBARS ([5]; HFD rats, 2.5 mg/kg): decreased
- Retinal TBARS ([5]; HFD rats, 2.5 mg/kg): reducing
- Serum TAC ([5]; HFD rats, 2.5 mg/kg): increased
- Serum TBARS ([5]; HFD rats, 2.5 mg/kg): reducing
- Liver CAT [5, 8]: 271.57 U/mg protein
- Liver GSHPx [5, 8]: 17.43 U/mg protein
- Liver SOD [5, 8]: 130.43 U/mg protein
- Liver TBARS [5, 8]: 2.98 nmol/mg protein
- Serum TAC [5, 8]: 0.64 U/mL
- Serum TBARS [5, 8]: 1.64 nmol/mL
- Liver CAT [5, 9]: increased
- Liver GSHPx [5, 9]: increased
- Liver SOD [5, 9]: increased
- Liver TBARS [5, 9]: decreased
- Liver CAT ([5]; normal diet rats): 306.14 U/mg protein
- Liver GSHPx ([5]; normal diet rats): 50.29 U/mg protein
- Liver SOD ([5]; normal diet rats): 198.57 U/mg protein
- Liver TBARS ([5]; normal diet rats): 1.56 nmol/mg protein
- Serum TAC ([5]; normal diet rats): 1.19 U/mL
- Serum TBARS ([5]; normal diet rats): 0.67 nmol/mL
- ACC alpha expression (FIG. 4 bar result) [6]: 0.9
- PPAR gamma expression (FIG. 4 bar result) [6]: 0.7
- Adiponectin ([7]; HFD rats, 2.5 mg/kg): decreased
- Glucose ([7]; HFD rats, 2.5 mg/kg): significantly reduced
- Insulin ([7]; HFD rats, 2.5 mg/kg): significantly reduced
- Leptin ([7]; HFD rats, 2.5 mg/kg): significantly reduced
- Adiponectin ([7]; normal diet rats): 10.8 µg/mL
- FFA ([7]; normal diet rats): 1.12 mM
- Glucose ([7]; normal diet rats): 78.29 mg/dL
- HDL-C ([7]; normal diet rats): 17.00 mg/dL
- Insulin ([7]; normal diet rats): 1.73 ng/mL
- LDL-C ([7]; normal diet rats): 25.00 mg/dL
- Leptin ([7]; normal diet rats): 30.43 ng/mL
- T-C (total cholesterol) ([7]; normal diet rats): 48.6 mg/dL
- TG ([7]; normal diet rats): 20.57 mg/dL
